According to patent US6855707B2, “Method for the treatment of lipid and glucose metabolism disorders” (Pliva D.D., priority 1996, dated 2005):

Assays:
[1] = timed bromocriptine monotherapy, diastolic blood pressure; type: in vivo; details: humans, 4.8 mg/day at 8:00 AM
Excerpt: The benefits of the invention are not limited to modifying and regulating lipid and glucose metabolism. Other bodily functions, such as blood pressure, can be beneficially modified and regulated by timed administration of a D2 agonist (as monotherapy) in the dosage range disclosed above. […] Conjoined administration of a dopamine D1 agonist and […]

[2] = system: ob/ob mice; test: Example 1: two-week treatment of female ob/ob mice (40-70 g) at light onset; type: in vivo; details: single drug, two weeks at light onset
Protocol: Female ob/ob mice (40-70 g bw) were treated for two weeks with either 1) bromocriptine (11 mg/kg) at light onset, 2) SKF38393 (20 mg/kg) at light onset, 3) bromocriptine plus SKF38393 at light onset, or 4) vehicle at light onset.

[3] = system: C57BL/6 ob/ob mice; test: Example 2: two-week treatment of C57BL/6 ob/ob mice at 1 HALO; type: in vivo; details: for reduction of plasma free fatty acid level / reduction of plasma glucose concentration / reduction of plasma insulin level / reduction of plasma triglyceride level: mouse, in vivo; for Food Consumption / Plasma FFA / Plasma Glucose / Plasma Insulin / Plasma TG / Whole Body Lipid-Glycerol (% BW) / Whole Body Lipid-Glycerol (g) / Whole Body Protein (% BW) / Whole Body Protein (g) / Final Body Weight: ob/ob mice, two weeks; for Final Body Weight: sacrificed 24-26 hours after last treatment; for reducing body weight gain: single drug 10 mg/kg, two weeks at 1 HALO
Protocol: Different groups of 6-week old C57BL/6 ob/ob mice (lacking a functional leptin protein) were treated with either bromocriptine (“BC”) (10 mg/kg BW), SKF38393 (“SKF”) (10 mg/kg BW), both drugs, or vehicle for two weeks at 1 hour after light onset (HALO). Animals were held on 12-hour daily photoperiods and allowed to feed ad libitum. Food consumption was monitored daily for 3 days before the initiation of treatment throughout the 14-day treatment period. Animals were sacrificed between 1 and 3 HALO on the day following the final treatment (i.e., 24-26 hours after last injection) and plasma was collected for the analyses of insulin, glucose, and lipids while the carcasses were solubilized in ethanolic KOH and analyzed for protein and lipid content. Bromocriptine and SKF38393, individually, were ineffective in reducing body weight gain where as SKF, but not BC, reduced food consumption (19%, P<0.01). However, the combined treatment of bromocriptine and SKF38393 (BC/SKF) decreased food consumption by 46% (from 4.8±0.2 to 2.6±g/day; P<0.001) and body weight by 15% (from a 3.2 g increase in controls to a 4.3 g decrease; P<0.005) in 14 days of treatment (FIG. 16). Relative to controls, in absolute terms, the lipid content of the BC/SKF treated animals was decreased by 40% (from 4.2±0.2 to 2.5±0.3 g glycerol/animal; P<0.0003) whereas the protein content increased 8% (from 3.7±0.08 to 4.0±0.08 g/animal; P<0.05). […] This effect on body composition was observed by SKF (P<0.003) or BC (P<0.04) treatments alone, although to a lesser extent than by BC/SKF combination (P<0.05).

[4] = target: T1, HMG-CoA reductase (Homo sapiens, UniProt P04035); details: in vivo; cited from earlier work
T1 sequence (P04035 1-888): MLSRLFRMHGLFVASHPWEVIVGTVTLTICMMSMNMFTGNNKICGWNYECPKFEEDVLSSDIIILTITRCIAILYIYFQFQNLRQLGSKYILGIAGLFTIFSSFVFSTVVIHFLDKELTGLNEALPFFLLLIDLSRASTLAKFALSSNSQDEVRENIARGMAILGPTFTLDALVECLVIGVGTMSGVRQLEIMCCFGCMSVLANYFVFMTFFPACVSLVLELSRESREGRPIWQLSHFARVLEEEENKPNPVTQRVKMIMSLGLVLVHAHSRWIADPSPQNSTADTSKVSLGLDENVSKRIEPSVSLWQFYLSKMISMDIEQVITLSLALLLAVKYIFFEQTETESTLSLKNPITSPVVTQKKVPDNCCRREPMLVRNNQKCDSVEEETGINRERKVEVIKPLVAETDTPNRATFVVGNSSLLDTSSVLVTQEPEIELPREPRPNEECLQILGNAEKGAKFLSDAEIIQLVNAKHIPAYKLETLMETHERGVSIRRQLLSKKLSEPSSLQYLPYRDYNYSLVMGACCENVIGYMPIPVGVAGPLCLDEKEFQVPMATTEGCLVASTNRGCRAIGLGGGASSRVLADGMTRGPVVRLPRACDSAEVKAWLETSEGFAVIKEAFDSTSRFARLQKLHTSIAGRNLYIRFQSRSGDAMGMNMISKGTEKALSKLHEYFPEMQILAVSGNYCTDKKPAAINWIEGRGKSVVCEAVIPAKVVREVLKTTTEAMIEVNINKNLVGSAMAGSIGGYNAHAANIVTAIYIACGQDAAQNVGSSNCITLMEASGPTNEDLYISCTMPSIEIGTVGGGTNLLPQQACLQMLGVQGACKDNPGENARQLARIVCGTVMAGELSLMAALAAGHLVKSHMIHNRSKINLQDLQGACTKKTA

Row | Structure (SMILES) | diastolic blood pressure [1] | reductions in hyperphagia, body weight gain, and obesity [2] | reduction of plasma free fatty acid level [3] | reduction of plasma glucose concentration [3] | reduction of plasma insulin level [3] | reduction of plasma triglyceride level [3] | Food Consumption [3] | Plasma FFA [3] | Plasma Glucose [3] | Plasma Insulin [3] | Plasma TG [3] | Whole Body Lipid-Glycerol (% BW) [3] | Whole Body Lipid-Glycerol (g) [3] | Whole Body Protein (% BW) [3] | Whole Body Protein (g) [3] | Final Body Weight [3] | reducing body weight gain [3] | reduction of food consumption ([3]; BC 10 mg/kg, SKF 10 mg/kg, 14 days) | increase in HDL concentrations [4]
1 | CC(C)C[C@H]1C(=O)N2CCC[C@H]2[C@]2(O)O[C@](NC(=O)[C@@H]3C=C4c5cccc6[nH]c(Br)c(c56)C[C@H]4N(C)C3)(C(C)C)C(=O)N12 [bromocriptine, 2-bromo-α-ergocriptine] | decrease significantly | moderate reductions | neither BC nor SKF individually, reduced | 31% | 50% | neither BC nor SKF individually, reduced | 4.5 ± 0.2^2,5 g/day | 818 ± 64^2 uM | 262 ± 25^1 mg/dl | 30 ± 4^2 ng/ml | 405 ± 101 mg/dL | 7.0 ± 0.2^1 % BW | 3.7 ± 0.1^1 g | 7.5 ± 0.1^1 % BW | 4.0 ± 0.1^1 g | 53 ± 0.7^2 g | ineffective | – | –
2 | Oc1cc2c(cc1O)C(c1ccccc1)CNCC2 (centres unmarked) [SKF38393] | – | moderate reductions | neither BC nor SKF individually, reduced | 43% | not affected | neither BC nor SKF individually, reduced | 3.9 ± 0.07^3,4,5 g/day | 671 ± 36^3 uM | 218 ± 22^2 mg/dl | 50 ± 13 ng/mL | 234 ± 22^1 mg/dl | 6.0 ± 0.2^1 % BW | 3.1 ± 0.1^1 g | 7.9 ± 0.1^1 % BW | 4.1 ± 0.04^2 g | 52 ± 0.7^2 g | ineffective | 19% | –
3 | CC[C@H](C)C(=O)O[C@H]1C[C@@H](C)C=C2C=C[C@H](C)[C@H](CC[C@@H]3C[C@@H](O)CC(=O)O3)[C@H]21 [lovastatin] | – | – | – | – | – | – | – | – | – | – | – | – | – | – | – | – | – | – | 5-10%
